Data as given in patent publication US20250345512A1, “COMBINATION SODIUM-GLUCOSE COTRANSPORTER INHIBITOR (SGLTI) INSULIN THERAPY FOR GLYCEMIC CONTROL IN TYPE 1 DIABETES” (University of Virginia Patent Foundation, priority 2022, published 2025).

System: participants with T1D
Assay: Randomized crossover clinical trial (NCT04201496): CGM glycemic outcomes with 5 mg daily empagliflozin adjunctive to AID (Control-IQ, CIQ) or PLGS (Basal-IQ, BIQ)
Format: in vivo, human
Conditions: for % CGM time <50 mg/dL (<2.8 mmol/L) / % CGM time <60 mg/dL (<3.3 mmol/L) / % CGM time <70 mg/dL (<3.9 mmol/L) / % CGM time >180 mg/dL (>10.0 mmol/L) / % CGM time >250 mg/dL (>13.9 mmol/L) / % CGM time >300 mg/dL (>16.7 mmol/L) / CGM HBGI / CGM LBGI: median (IQR)
Experimental: FIG. 2 presents a study analysis relative to baseline, control IQ (CIQ) (e.g., AID), and basal IQ (BIQ) (e.g., PLGS) implementation, according to investigation that is demonstrable of one or more embodiments herein. Therein, an experimental arm (G1, G2) providing an initial daily dose of 5 mg empagliflozin (EMPA) is depicted against a control arm (G3, G4) without such dosing (NOEMPA). Relative characteristics of the analysis are provided below.
Study Design: A single-center, randomized, controlled, unblinded, crossover clinical trial (NCT04201496) compared four parallel groups, two groups in the experimental arm (EMPA) with 5 mg daily empagliflozin as adjunctive therapy to PLGS or AID, and two groups in the control arm (NOEMPA) with no drug and with a PLGS system (Basal-IQ, Tandem Diabetes Care) or AID system (Control-IQ, Tandem Diabetes Care). The groups within each arm differed from one another in the order of the randomly assigned crossover technological intervention, relative to PLGS being followed by AID or AID being followed by PLGS, respectively (FIG. 4). The study protocol was approved by the University of Virginia Institutional Review Board (IRB). An investigational device exemption (IDE), including an investigational new drug (IND) application for empagliflozin, was approved by the FDA. Safety aspects were overseen by an external data and safety monitoring board (DSMB). Participants: Major inclusion criteria were T1D treated with insulin for at least one year, use of continuous subcutaneous insulin infusion therapy for at least six months, age 18-65 yrs., no use of glucose lowering agents other than insulin, and Hb1Ac<9% (75 mmol/mol). Randomization: A (1:1:1:1) randomization assigned participants to either Group 1, AID-EMPA (4 weeks) followed by PLGS-EMPA (2 weeks), Group 2, PLGS-EMPA (2 weeks) followed by AID-EMPA (4 weeks), Group 3, AID-NOEMPA (4 weeks) followed by PLGS-NOEMPA (2 weeks), and Group 4, PLGS-NOEMPA (2 weeks) followed by AID-NOEMPA (4 weeks). Procedures: After confirmation of eligibility, participants underwent study equipment and medication training (experimental arm), or only study equipment training (control arm). Study equipment consisted of Dexcom G6® CGM (Dexcom Inc., San Diego, CA), Contour® Next blood glucose (Ascensia Diabetes Care, Basel, Switzerland) and Precision Xtra® blood ketone meters (Abbott, Alameda, CA) with their respective test strips; infusion sets, and the use of the t:slim X2™ insulin pump with Basal-IQ or Control-IQ technologies (Tandem Diabetes Care, San Diego, CA), according to randomization. […] Participants in the experimental arm were asked to record two days of baseline ketone values before initiating the use of the study drug. Thereafter, participants were directed to use the study CGM with EMPA for 1-2 weeks. A tolerance to the medication was assessed prior to the starting of the next study phase, including adherence to the protocol, ketone testing 2-4 times per day with monitored values not greater than 0.6 mmol/L on at least two successive occasions (the first testing upon waking in a fasted state), no adverse events relating to perineal infection or symptomatic postural hypotension, and no evidence of significant hypoglycemia <54 mg/dL, or any other listed adverse effects of the medication. Participants in the control arm were directed to use the study CGM for 1-2 weeks. Sample Size: The total sample size was projected to be 40 participants, assuming 1) 1:1:1:1 randomization; 2) 90% power and type 1 error a=0.01, further reinforcing the feasibility of hierarchical analyses. The projected recruitment sample was n=50, to accommodate up to 20% attrition rate without sacrificing statistical power. Analytical methods: For the primary analysis, TIR during the day in the 4-week AID period was compared between the two EMPA groups versus the two NOEMPA groups using a linear mixed-effects regression model while adjusting for pre-randomization HbAlc and age. […]

[1] = EMPA minus NOEMPA on same insulin system, adjusted for HbA1c
[2] = daytime (7:00-23:00), CIQ-EMPA vs. BIQ-NOEMPA, BIQ-EMPA vs. CIQ-NOEMPA
[3] = daytime (7:00-23:00), CIQ-EMPA vs. CIQ-NOEMPA, BIQ-EMPA vs. BIQ-NOEMPA
[4] = daytime (7:00-23:00), n = 16, mean ± SD
[5] = overall, CIQ-EMPA vs. BIQ-NOEMPA, BIQ-EMPA vs. CIQ-NOEMPA
[6] = overall, CIQ-EMPA vs. CIQ-NOEMPA, BIQ-EMPA vs. BIQ-NOEMPA
[7] = overall, PLGS-EMPA (see Tables 4 and 5)
[8] = overnight, CIQ-EMPA vs. BIQ-NOEMPA, BIQ-EMPA vs. CIQ-NOEMPA
[9] = overnight, CIQ-EMPA vs. CIQ-NOEMPA, BIQ-EMPA vs. BIQ-NOEMPA
[10] = overnight, PLGS-EMPA compared to PLGS-NOEMPA

## OC[C@H]1O[C@@H](c2ccc(Cl)c(Cc3ccc(O[C@H]4CCOC4)cc3)c2)[C@H](O)[C@@H](O)[C@@H]1O [BIQ-EMPA, empagliflozin]
24/7, n = 17
  24/7 HBGI - median (IQR): 3.3(1.8-4.7)
  24/7 LBGI - median (IQR): 0.7(0.6-1)
  24/7 glucose level <70 mg/dL (<3.9 mmol/L) - median % time (IQR): 1.7(0.9-2.7) %
24/7, n = 17, mean ± SD
  24/7 Mean glucose level -: 141 ± 30 mg/dL
[1]
  Difference (95% CI): 24/7 HBGI: −3.7(−6.5 to −1)
  Difference (95% CI): 24/7 LBGI: 0.1(−0.3 to 0.6)
  Difference (95% CI): 24/7 Mean glucose level: −24.1(−42.2 to −6) mg/dL
  Difference (95% CI): 24/7 glucose level <70 mg/dL % time: 0.2(−1.7 to 2.1) percentage points
  Difference (95% CI): Daytime CGM CV: −4.0(−6.8 to −1.2) %
  Difference (95% CI): Daytime CGM SD: −13.2(−21.6 to −4.8) mg/dL
EMPA minus NOEMPA on same insulin system, adjusted for pre-randomization HbA1c
  Difference (95% CI): daytime glucose % Time in range of 70 to 180 mg/dL: 16.5(7.3 to 26) ^ percentage points
Daytime 7:00 to 23:00 h, n = 17, mean ± SD
  Primary: daytime glucose % Time in range of 70 to 180 mg/dL (3.9-10.0 mmol/L): 80 ± 14%
[2]
  Difference (95% CI): % CGM time <50 mg/dL (<2.8 mmol/L): −0.3 percentage points
  Difference (95% CI): % CGM time <60 mg/dL (<3.3 mmol/L): −0.2 percentage points
  Difference (95% CI): % CGM time >180 mg/dL (>10.0 mmol/L): −9.5 percentage points
  Difference (95% CI): % CGM time >250 mg/dL (>13.9 mmol/L): −2.2 percentage points
  Difference (95% CI): % CGM time >300 mg/dL (>16.7 mmol/L): −0.4 percentage points
  Difference (95% CI): CGM HBGI: −1.9
  Difference (95% CI): CGM LBGI: 0.3
  Difference (95% CI): CGM SD: -7.1 mg/dL
  Difference (95% CI): Mean CGM glucose: -14.9 mg/dL
[3]
  Difference (95% CI): % CGM time 70-140 mg/dL (<3.9-7.8 mmol/L): 17.6 percentage points
  Difference (95% CI): % CGM time >180 mg/dL (>10.0 mmol/L): −16.7 percentage points
  Difference (95% CI): % CGM time >250 mg/dL (>13.9 mmol/L): −7.6 percentage points
  Difference (95% CI): % CGM time >300 mg/dL (>16.7 mmol/L): −2.7 percentage points
  Difference (95% CI): CGM HBGI: −4
  Difference (95% CI): CGM LBGI: −0.3
  Difference (95% CI): CGM SD: -13.2 mg/dL
  Difference (95% CI): Mean CGM glucose: -23.8 mg/dL
Daytime (7:00-23:00), CIQ-EMPA vs. CIQ-NOEMPA, BIQ-EMPA vs. BIQ-NOEMPA, listed as PLGS-EMPA
  Difference (95% CI): % CGM time <70-180 mg/dL (3.9-10.0 mmol/L): 16 percentage points
[4]
  % CGM time 70-140 mg/dL (3.9-7.8 mmol/L): 58.1 ± 16.5%
  % CGM time 70-180 mg/dL (3.9-10.0 mmol/L): 80 ± 14.5%
  CGM CV (%): 35.7 ± 3.5%
  CGM SD: 45 ± 14.6 mg/dL
  Mean CGM glucose: 139 ± 26 mg/dL
Daytime (7:00-23:00), n = 16, mean ± SD, listed as PLGS-EMPA
  % CGM time 70-180 mg/dL (3.9-10.0 mmol/L): 80±14.5%
Daytime (7:00-23:00), n = 16
  % CGM time <50 mg/dL (<2.8 mmol/L): 0(0-0.4) %
  % CGM time <60 mg/dL (<3.3 mmol/L): 0.5(0.1-0.9) %
  % CGM time <70 mg/dL (<3.9 mmol/L): 1.7(0.9-2.7) %
  % CGM time >180 mg/dL (>10.0 mmol/L): 11.3(5.3-22.4) %
  % CGM time >250 mg/dL (>13.9 mmol/L): 1.7(0.1-4.4) %
  % CGM time >300 mg/dL (>16.7 mmol/L): 0.1(0-0.8) %
  CGM HBGI: 2.8(1.6-4.9)
  CGM LBGI: 0.7(0.6-0.9)
daytime, n = 17, mean ± SD
  Daytime CGM CV - %: 30.4 ± 3.5%
  Daytime CGM SD -: 44.9 ± 14.7 mg/dL
[5]
  Difference: CGM HBGI: −1.6
  Difference: CGM LBGI: 0.2
[6]
  Difference: CGM HBGI: −4.3
  Difference: CGM LBGI: 0.1
  Difference: CGM SD: -14.3 mg/dL
[7]
  decrease in mean glucose overall: 24 mg/dL
  decrease in percent time in hyperglycemia: 18.6%
overall, n = 16, mean ± SD
  % CGM time <70-140 mg/dL (<3.9-7.8 mmol/L): 56.8 ± 16.5%
  % CGM time <70-180 mg/dL (<3.9-10.0 mmol/L): 79 ± 15.7%
  CGM CV (%): 32.1 ± 3.7%
  CGM SD: 46 ± 14.6 mg/dL
overall, n = 16
  % CGM time <50 mg/dL (<2.8 mmol/L): 0(0-0.4) %
  % CGM time <60 mg/dL (<3.3 mmol/L): 0.5(0.2-0.9) %
  % CGM time <70 mg/dL (<3.9 mmol/L): 1.7(0.9-2.7) %
  % CGM time >180 mg/dL (>10.0 mmol/L): 15(6.7-22.7) %
  % CGM time >250 mg/dL (>13.9 mmol/L): 1.7(0.2-3.6) %
  % CGM time >300 mg/dL (>16.7 mmol/L): 0.2(0-0.6) %
  CGM HBGI: 3.3(1.8-4.7)
  CGM LBGI: 0.7(0.6-1)
[8]
  Difference (95% CI): % CGM time <50 mg/dL (<2.8 mmol/L): −0.4 percentage points
  Difference (95% CI): % CGM time >180 mg/dL (>10.0 mmol/L): −5.1 percentage points
  Difference (95% CI): % CGM time >300 mg/dL (>16.7 mmol/L): −0.3 percentage points
  Difference (95% CI): CGM CV (%): −3.1%
  Difference (95% CI): CGM HBGI: −1.1
  Difference (95% CI): CGM LBGI: 0.3
  Difference (95% CI): CGM SD: -8.2 mg/dL
  Difference (95% CI): Mean CGM glucose: -9.8 mg/dL
[9]
  Difference (95% CI): % CGM time >180 mg/dL (>10.0 mmol/L): −18.2 percentage points
  Difference (95% CI): % CGM time >250 mg/dL (>13.9 mmol/L): −13.9 percentage points
  Difference (95% CI): % CGM time >300 mg/dL (>16.7 mmol/L): −4.8 percentage points
  Difference (95% CI): CGM HBGI: −6.2
  Difference (95% CI): CGM LBGI: 0.2
  Difference (95% CI): CGM SD: -17.2 mg/dL
[10]
  decrease in time in hyperglycemia: 7.6%
  increase in percent TIR: 17%
overnight, n = 16, mean ± SD
  % CGM time 70-140 mg/dL (3.9-7.8 mmol/L): 54 ± 21%
  % CGM time 70-180 mg/dL (3.9-10.0 mmol/L): 76 ± 21%
  CGM CV (%): 30.5 ± 4.2%
  CGM SD: 44.5 ± 14 mg/dL
  Mean CGM glucose: 145 ± 41 mg/dL
overnight, n = 16
  % CGM time <50 mg/dL (<2.8 mmol/L): 0(0-0.5) %
  % CGM time <60 mg/dL (<3.3 mmol/L): 0.5(0.1-1.1) %
  % CGM time <70 mg/dL (<3.9 mmol/L): 1.5(0.4-2.7) %
  % CGM time >180 mg/dL (>10.0 mmol/L): 16.2(7-30.8) %
  % CGM time >250 mg/dL (>13.9 mmol/L): 0.1(0-2.4) %
  % CGM time >300 mg/dL (>16.7 mmol/L): 0(0-0.2) %
  CGM HBGI: 3.3(2.1-5.2)
  CGM LBGI: 0.7(0.4-1.4)
overnight, out of 8 h of the night-time, listed as PLGS-EMPA
  night-time in range, h out of 8 h: 6 h
